Measurements published in article PMC4096598 (PLoS ONE, 2014).
“And” between values parts separate entries of the source, which are not always exact repeats. Equal entries are not always repeated. Where two headings read alike, the source gives them in different places. Ends that are not written are not given here.

Tests used:
[1] = test system: Mycobacterium tuberculosis MDR (clinically isolated multidrug resistant strain); conditions: literature value ref Rastogi, et al., 1996 [55]; cited from earlier work
[2] = not given; remark: listed apart in the source
[3] = test system: Mycobacterium tuberculosis MDR (clinically isolated multidrug resistant strain); conditions: MDR (clinically isolated multidrug resistant strain, 24 h)

CC[C@@H](CO)NCCN[C@@H](CC)CO [Ethambutol]
MIC Mycobacterium tuberculosis MDR [1]: 20 µg/mL and 97 µM

CO[C@H]1/C=C/O[C@@]2(C)Oc3c(C)c(O)c4c(O)c(c(/C=N/N5CCN(C)CC5)c(O)c4c3C2=O)NC(=O)/C(C)=C\C=C\[C@H](C)[C@H](O)[C@@H](C)[C@@H](O)[C@@H](C)[C@H](OC(C)=O)[C@@H]1C [Rifampicin]
MIC Mycobacterium tuberculosis MDR [1]: 32 µg/mL and 38.9 µM

FWGALAKGALKLIGPGSLFSSFSKKD [Pin2 [GPG]]
maximum alpha-helical structure: 60%

FWGALAKGALKLIGSLFSSFSKKD [Pin2 [G]]
maximum alpha-helical structure: 60% | alpha-helical structure in absence of TFE [2]: 20% | MIC Mycobacterium tuberculosis MDR [3]: 18.7 µM

FWGALAKGALKLIPSLFSSFSKKD [Pin2, Pandinin 2, reference compound]
MIC Mycobacterium tuberculosis MDR [3]: 33.1 µM

FWGLKGLKGPGKFSKKL [Pin2 [17]]
MIC Mycobacterium tuberculosis MDR [3]: 14.8 ± 5.2 µM

FWGLKGLKKFSKKL [Pin2 [14]]
MIC Mycobacterium tuberculosis MDR [3]: 6 ± 1.8 µM
